tested on: HCV genotype 1b replicon in Huh 7 cells; assay: HCV replicon assay (luciferase readout, 1b_Huh-Luc/Neo-ET cell line); type: cell-based; details: Hepatitis C virus, Huh-7, 72 h, read-out: Inhibition of HCV genotype 1b, Table 5, 72 h incubation
Procedure, shortened: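 Huh 7 cells carrying a bicistronic genotype 1b luciferase replicon treated with compound in triplicate for 72 h. Replicon level read as luciferase activity (Bright-Glo), expressed as % of control; EC50 from a sigmoidal Hill-slope fit, repeated several times.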

**Q.** With COC(=O)N[C@@H](C(=O)N1CCC[C@H]1c1ncc(-c2ccc(C34CCC(c5cnc([C@@H]6CCCN6C(=O)[C@@H](c6ccccc6)N(C)C)[nH]5)(CC3)CC4)cc2)[nH]1)c1ccccc1 [compound 618] as the compound, how does the EC50 read?
**A.** < 1 nM

**Q.** With CCN(CC)[C@@H](C(=O)N1CCC[C@H]1c1ncc(C23CCC(c4ccc(-c5cnc([C@@H]6CCCN6C(=O)[C@H](NC(=O)OC)c6ccccc6)[nH]5)cc4)(CC2)CC3)[nH]1)c1ccccc1 [compound 619] as the compound, how does the EC50 read?
**A.** < 1 nM

**Q.** COC(=O)N[C@@H](C(=O)N1CCC[C@H]1c1ncc(C23CCC(c4ccc(-c5cnc([C@@H]6CCCN6C(=O)[C@H](OC)c6ccccc6)[nH]5)cc4)(CC2)CC3)[nH]1)c1ccccc1 [compound 620] was tested. Which EC50 did it give?
**A.** < 1 nM

**Q.** COC(=O)N[C@@H](C(=O)N1CCC[C@H]1c1ncc(C23CCC(c4ccc(-c5cnc([C@@H]6CCCN6C(=O)[C@H](NC(=O)OC)C(C)C)[nH]5)cc4)(CC2)CC3)[nH]1)c1ccccc1 [compound 621] was tested. Which EC50 did it give?
**A.** < 1 nM

**Q.** Which EC50 does the source give for COC(=O)N[C@@H](C(=O)N1CCC[C@H]1c1ncc(C23CCC(c4ccc(-c5cnc([C@@H]6CCCN6C(=O)[C@@H](c6ccccc6)N(C)C)[nH]5)cc4)(CC2)CC3)[nH]1)c1ccccc1 [compound 622] here?
**A.** < 1 nM

**Q.** With COC(=O)N[C@@H](C(=O)N1CCC[C@H]1c1ncc(C23CCC(c4ccc(-c5cnc([C@@H]6CCCN6C(=O)[C@@H](c6ccccc6)N6CCCC6)[nH]5)cc4)(CC2)CC3)[nH]1)c1ccccc1 [compound 623] as the compound, how does the EC50 read?
**A.** < 1 nM

**Q.** Which EC50 does the source give for COC(=O)N[C@H](C(=O)N1CCC[C@H]1c1ncc(-c2ccc(C34CCC(c5cnc([C@@H]6CCCN6C(=O)[C@H](NC(=O)OC)c6ccccc6)[nH]5)(CC3)CC4)cc2)[nH]1)C(C)C [compound 624] here?
**A.** < 1 nM

**Q.** With COC(=O)N[C@@H](C(=O)N1CCC[C@H]1c1ncc(C23CCC(c4ccc(-c5cnc([C@@H]6CCCN6C(=O)[C@H](NC(=O)C6CC6)c6ccccc6)[nH]5)cc4)(CC2)CC3)[nH]1)c1ccccc1 [compound 625] as the compound, how does the EC50 read?
**A.** < 1 nM

**Q.** With COC(=O)N[C@H](C(=O)N1CCC[C@H]1c1ncc(-c2ccc(C34CCC(c5cnc([C@@H]6CCCN6C(=O)[C@H](NC(=O)OC(C)(C)C)c6ccccc6)[nH]5)(CC3)CC4)cc2)[nH]1)C(C)C [compound 626] as the compound, how does the EC50 read?
**A.** < 1 nM

**Q.** How did the EC50 turn out when COC(=O)N[C@H](C(=O)N1CCC[C@H]1c1ncc(-c2ccc(C34CCC(c5cnc([C@@H]6CCCN6C(=O)[C@@H](NC(=O)OC)C(C)C)[nH]5)(CC3)CC4)cc2)[nH]1)C(C)C [compound 627] was run?
**A.** < 1 nM

**Q.** How did the EC50 turn out when CC(C)[C@H](NC(=O)N1CCOCC1)C(=O)N1CCC[C@H]1c1ncc(-c2ccc(C34CCC(c5cnc([C@@H]6CCCN6C(=O)[C@@H](NC(=O)N6CCOCC6)C(C)C)[nH]5)(CC3)CC4)cc2)[nH]1 [compound 628] was run?
**A.** > 1000 nM

**Q.** With CC(C)[C@H](NC(=O)N1CC[C@@H](O)C1)C(=O)N1CCC[C@H]1c1ncc(-c2ccc(C34CCC(c5cnc([C@@H]6CCCN6C(=O)[C@@H](NC(=O)N6CC[C@@H](O)C6)C(C)C)[nH]5)(CC3)CC4)cc2)[nH]1 [compound 629] as the compound, how does the EC50 read?
**A.** > 1000 nM

**Q.** Which EC50 does the source give for CC(C)[C@H](NC(=O)N1CCC(O)CC1)C(=O)N1CCC[C@H]1c1ncc(-c2ccc(C34CCC(c5cnc([C@@H]6CCCN6C(=O)[C@@H](NC(=O)N6CCC(O)CC6)C(C)C)[nH]5)(CC3)CC4)cc2)[nH]1 [compound 630] here?
**A.** > 1000 nM

**Q.** COC(=O)N[C@H](C(=O)N1CCC[C@H]1c1ncc(-c2ccc(C34CCC(c5cnc([C@@H]6CCCN6C(=O)[C@H](NC(=O)C6CC6)c6ccccc6)[nH]5)(CC3)CC4)cc2)[nH]1)C(C)C [compound 631] was tested. Which EC50 did it give?
**A.** < 1 nM

**Q.** With COC(=O)N[C@H](C(=O)N1CCC[C@H]1c1ncc(-c2ccc(C34CCC(c5cnc([C@@H]6CCCN6C(=O)[C@@H](c6ccccc6)N6CCCCC6)[nH]5)(CC3)CC4)cc2)[nH]1)C(C)C [compound 632] as the compound, how does the EC50 read?
**A.** < 1 nM

**Q.** With CC(C)[C@H](NC(=O)N1CCC(C)(O)CC1)C(=O)N1CCC[C@H]1c1ncc(-c2ccc(C34CCC(c5cnc([C@@H]6CCCN6C(=O)[C@@H](NC(=O)N6CCC(C)(O)CC6)C(C)C)[nH]5)(CC3)CC4)cc2)[nH]1 [compound 634] as the compound, how does the EC50 read?
**A.** < 1 nM

**Q.** For CC(C)[C@H](NC(=O)N1CC[C@H](O)C1)C(=O)N1CCC[C@H]1c1ncc(-c2ccc(C34CCC(c5cnc([C@@H]6CCCN6C(=O)[C@@H](NC(=O)N6CC[C@H](O)C6)C(C)C)[nH]5)(CC3)CC4)cc2)[nH]1 [compound 635], which EC50 is on record?
**A.** < 1 nM

**Q.** For COC(=O)N[C@@H](C(=O)N1CCC[C@H]1c1ncc(-c2ccc(C34CCC(c5cnc([C@@H]6CCCN6C(=O)[C@@H](NC(=O)N6CCN(C)CC6)C(C)C)[nH]5)(CC3)CC4)cc2)[nH]1)c1ccccc1 [compound 637], which EC50 is on record?
**A.** 1 to 9.9 nM

**Q.** For CC(C)[C@H](NC(=O)N1CCC(=O)CC1)C(=O)N1CCC[C@H]1c1ncc(-c2ccc(C34CCC(c5cnc([C@@H]6CCCN6C(=O)[C@@H](NC(=O)N6CCC(=O)CC6)C(C)C)[nH]5)(CC3)CC4)cc2)[nH]1 [compound 638], which EC50 is on record?
**A.** > 1000 nM

**Q.** How did the EC50 turn out when CC(C)[C@H](NC(=O)N1CCCCC1)C(=O)N1CCC[C@H]1c1ncc(-c2ccc(C34CCC(c5cnc([C@@H]6CCCN6C(=O)[C@@H](NC(=O)N6CCCCC6)C(C)C)[nH]5)(CC3)CC4)cc2)[nH]1 [compound 639] was run?
**A.** > 1000 nM

**Q.** COC(=O)N[C@H](C(=O)N1CCC[C@H]1c1ncc(-c2ccc(C34CCC(c5cnc([C@@H]6CCCN6C(=O)[C@@H](NC(=O)N6CCCCC6)C(C)C)[nH]5)(CC3)CC4)cc2)[nH]1)C(C)C [compound 640] was tested. Which EC50 did it give?
**A.** > 1000 nM

**Q.** COC(=O)N[C@H](C(=O)N1CCC[C@H]1c1ncc(-c2ccc(C34CCC(c5cnc([C@@H]6CCCN6C(=O)[C@@H](NC(=O)C6CCOCC6)C(C)C)[nH]5)(CC3)CC4)cc2)[nH]1)C(C)C [compound 641] was tested. Which EC50 did it give?
**A.** > 1000 nM

**Q.** How did the EC50 turn out when COC(=O)N[C@@H](C(=O)N1CCC[C@H]1c1ncc(-c2ccc(C34CCC(c5cnc([C@@H]6CCCN6C(=O)[C@@H](NC(=O)N6CCC(=O)CC6)C(C)C)[nH]5)(CC3)CC4)cc2)[nH]1)c1ccccc1 [compound 644] was run?
**A.** 1 to 9.9 nM

**Q.** How did the EC50 turn out when COC(=O)N[C@H](C(=O)N1CCC[C@H]1c1ncc(C23CCC(c4ccc(-c5cnc([C@@H]6CCCN6C(=O)[C@@H](NC(=O)N6CCOCC6)C(C)C)[nH]5)cc4)(CC2)CC3)[nH]1)C(C)C [compound 645] was run?
**A.** < 1 nM

**Q.** For COC(=O)N[C@H](C(=O)N1CCC[C@H]1c1ncc(C23CCC(c4ccc(-c5cnc([C@@H]6CCCN6C(=O)[C@@H](NC(=O)N6CCN(C)CC6)C(C)C)[nH]5)cc4)(CC2)CC3)[nH]1)C(C)C [compound 646], which EC50 is on record?
**A.** 10 to 999 nM

**Q.** With COC(=O)N[C@H](C(=O)N1CCC[C@H]1c1ncc(C23CCC(c4ccc(-c5cnc([C@@H]6CCCN6C(=O)[C@@H](NC(=O)C6CCN(C)CC6)C(C)C)[nH]5)cc4)(CC2)CC3)[nH]1)C(C)C [compound 647] as the compound, how does the EC50 read?
**A.** 10 to 999 nM

**Q.** Which EC50 does the source give for COC(=O)N[C@H](C(=O)N1CCC[C@H]1c1ncc(C23CCC(c4ccc(-c5cnc([C@@H]6CCCN6C(=O)[C@@H](NC(=O)N6CCCCC6)C(C)C)[nH]5)cc4)(CC2)CC3)[nH]1)C(C)C [compound 648] here?
**A.** 10 to 999 nM

**Q.** How did the EC50 turn out when COC(=O)N[C@H](C(=O)N1CCC[C@H]1c1ncc(C23CCC(c4ccc(-c5cnc([C@@H]6CCCN6C(=O)[C@@H](NC(=O)N6CCC(O)CC6)C(C)C)[nH]5)cc4)(CC2)CC3)[nH]1)C(C)C [compound 649] was run?
**A.** < 1 nM

**Q.** COC(=O)N[C@H](C(=O)N1CCC[C@H]1c1ncc(C23CCC(c4ccc(-c5cnc([C@@H]6CCCN6C(=O)[C@@H](NC(=O)N6CCC(=O)CC6)C(C)C)[nH]5)cc4)(CC2)CC3)[nH]1)C(C)C [compound 650] was tested. Which EC50 did it give?
**A.** 1 to 9.9 nM

**Q.** How did the EC50 turn out when COC(=O)N[C@H](C(=O)N1CCC[C@H]1c1ncc(C23CCC(c4ccc(-c5cnc([C@@H]6CCCN6C(=O)[C@@H](NC(=O)N6CC[C@H](O)C6)C(C)C)[nH]5)cc4)(CC2)CC3)[nH]1)C(C)C [compound 651] was run?
**A.** 1 to 9.9 nM

**Q.** How did the EC50 turn out when COC(=O)N[C@H](C(=O)N1CCC[C@H]1c1ncc(C23CCC(c4ccc(-c5cnc([C@@H]6CCCN6C(=O)[C@@H](NC(=O)N6CCC[C@H]6CO)C(C)C)[nH]5)cc4)(CC2)CC3)[nH]1)C(C)C [compound 652] was run?
**A.** < 1 nM

**Q.** For COC(=O)N[C@H](C(=O)N1CCC[C@H]1c1ncc(-c2ccc(C34CCC(c5cnc([C@@H]6CCCN6C(=O)[C@@H](NC(=O)OC)C6CC6)[nH]5)(CC3)CC4)cc2)[nH]1)C1CC1 [compound 908], which EC50 is on record?
**A.** < 1 nM

**Q.** Which EC50 does the source give for COC(=O)N[C@H](C(=O)N1CCC[C@H]1c1ncc(-c2ccc(C34CCC(c5cnc([C@@H]6CCCN6C(=O)[C@@H](NC(=O)OC)[C@H](C)O)[nH]5)(CC3)CC4)cc2)[nH]1)[C@H](C)O [compound 909] here?
**A.** 1 to 9.9 nM

**Q.** CCC(CC)[C@H](NC(=O)OC)C(=O)N1CCC[C@H]1c1ncc(-c2ccc(C34CCC(c5cnc([C@@H]6CCCN6C(=O)[C@@H](NC(=O)OC)C(CC)CC)[nH]5)(CC3)CC4)cc2)[nH]1 [compound 910] was tested. Which EC50 did it give?
**A.** < 1 nM

**Q.** How did the EC50 turn out when COC(=O)N[C@H](C(=O)N1CCC[C@H]1c1ncc(-c2ccc(C34CCC(c5cnc([C@@H]6CCCN6C(=O)[C@H](C(C)C)N(C)C(=O)OC)[nH]5)(CC3)CC4)cc2)[nH]1)C(C)C [compound 911] was run?
**A.** < 1 nM

**Q.** How did the EC50 turn out when COC(=O)N[C@H](C(=O)N1CCC[C@H]1c1ncc(C23CCC(c4ccc(-c5cnc([C@@H]6CCCN6C(=O)[C@H](C(C)C)N(C)C(=O)OC)[nH]5)cc4)(CC2)CC3)[nH]1)C(C)C [compound 912] was run?
**A.** < 1 nM

same assay, conditions: read-out: Inhibition of HCV genotype 1b, Table 5, 72 h incubation

**Q.** How did the EC50 turn out when COC(=O)N[C@H](C(=O)N1CCC[C@H]1c1ncc(-c2ccc(C34CCC(c5cnc([C@@H]6CCCN6C(=O)[C@@H](NC(=O)N6CCC(O)CC6)C(C)C)[nH]5)(CC3)CC4)cc2)[nH]1)C(C)C [compound 633] was run?
**A.** < 1 nM

**Q.** With COC(=O)N[C@H](C(=O)N1CCC[C@H]1c1ncc(-c2ccc(C34CCC(c5cnc([C@@H]6CCCN6C(=O)[C@@H](NC(=O)N6CCOCC6)C(C)C)[nH]5)(CC3)CC4)cc2)[nH]1)C(C)C [compound 636] as the compound, how does the EC50 read?
**A.** < 1 nM

**Q.** Which EC50 does the source give for COC(=O)N[C@@H](C(=O)N1CCC[C@H]1c1ncc(-c2ccc(C34CCC(c5cnc([C@@H]6CCCN6C(=O)[C@@H](NC(=O)N6CCN(C)CC6)C(C)C)[nH]5)(CC3)CC4)cc2)[nH]1)c1ccccc1 [compound 642] here?
**A.** 1 to 9.9 nM

**Q.** With COC(=O)N[C@@H](C(=O)N1CCC[C@H]1c1ncc(-c2ccc(C34CCC(c5cnc([C@@H]6CCCN6C(=O)[C@@H](NC(=O)N6CCOCC6)C(C)C)[nH]5)(CC3)CC4)cc2)[nH]1)c1ccccc1 [compound 643] as the compound, how does the EC50 read?
**A.** 1 to 9.9 nM

Reference: patent publication US9120779B2, “Inhibitors of HCV NS5A” (PRESIDIO PHARMACEUTICALS, INC., priority 2008, dated 2015)
